What follows are compounds tested against T1, Recombinant mouse PD-L1 (Mus musculus, UniProt Q9EP73) (assay: Rescue of mouse splenocyte proliferation in the presence of recombinant PD-L1 (CFSE proliferation assay)). Conditions: 100 nM compound; CFSE-labelled C57 BL6 mouse splenocytes + anti-CD3/CD28 + PD-L1 (100 ng/mL), 72 h; normalised to stimulated splenocytes as 100%; read-out: Percent rescue of splenocyte proliferation (@100 nM).
T1 construct: Fc (Fc chimera); purchased R&D Systems 1019-B7-100
T1 sequence (Q9EP73 with tags, fused parts or gaps limits assumed): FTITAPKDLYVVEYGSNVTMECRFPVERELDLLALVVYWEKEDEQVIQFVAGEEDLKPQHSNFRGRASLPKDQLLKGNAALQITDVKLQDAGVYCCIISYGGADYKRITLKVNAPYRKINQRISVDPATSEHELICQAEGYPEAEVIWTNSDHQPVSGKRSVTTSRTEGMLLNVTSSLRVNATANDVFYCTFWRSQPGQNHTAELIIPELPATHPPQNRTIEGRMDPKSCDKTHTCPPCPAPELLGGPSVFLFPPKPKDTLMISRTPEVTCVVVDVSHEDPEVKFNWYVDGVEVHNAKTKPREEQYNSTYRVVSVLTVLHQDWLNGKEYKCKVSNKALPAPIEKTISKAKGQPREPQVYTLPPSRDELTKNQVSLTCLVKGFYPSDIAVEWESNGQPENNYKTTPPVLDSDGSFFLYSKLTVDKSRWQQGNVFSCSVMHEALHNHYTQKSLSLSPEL
Format: cell-based
Procedure: Example 15: Rescue of Mouse Splenocyte Proliferation in the Presence of Recombinant PD-L1
Recombinant mouse PD-L1 (rm-PDL-1, cat no: 1019-B7-100; R&D Systems) were used as the source of PD-L1.
Mouse splenocytes harvested from 6-8 weeks old C57 BL6 mice; RPMI 1640 (GIBCO, Cat #11875); DMEM with high glucose (GIBCO, Cat # D6429); Fetal Bovine Serum [Hyclone, Cat # SH30071.03]; Penicillin (10000 unit/mL)-Streptomycin (10,000 μg/mL) Liquid (GIBCO, Cat #15140-122); MEM Sodium Pyruvate solution 100 mM (100×), Liquid (GIBCO, Cat #11360); Nonessential amino acid (GIBCO, Cat #11140); L-Glutamine (GIBCO, Cat #25030); Anti-CD3 antibody (eBiosciences—16-0032); Anti-CD28 antibody (eBiosciences—16-0281); ACK lysis buffer (1 mL) (GIBCO, Cat #-A10492); Histopaque (density-1.083 gm/mL) (SIGMA 10831); Trypan blue solution (SIGMA-T8154); 2 mL Norm Ject Luer Lock syringe-(Sigma 2014-12); 40 μm nylon cell strainer (BD FALCON 35230); Hemacytometer (Bright line-SIGMA Z359629); FACS Buffer (PBS/0.1% BSA): Phosphate Buffered Saline (PBS) pH 7.2 (HiMedia TS1006) with 0.1% Bovine Serum Albumin (BSA) (SIGMA A7050) and sodium azide (SIGMA 08591); 5 mM stock solution of CFSE: CFSE stock solution was prepared by diluting lyophilized CFSE with 180 μL of Dimethyl sulfoxide (DMSO C2H6SO, SIGMA-D-5879) and aliquoted in to tubes for further use. Working concentrations were titrated from 10 μM to 1 μM. (eBioscience—650850-85); 0.05% Trypsin and 0.02% EDTA (SIGMA 59417C); 96-well format ELISA plates (Corning CLS3390); BD FACS caliber (E6016); Recombinant mouse B7-H1/PDL1 Fc Chimera, (rm-PD-L1 cat no: 1019-B7-100).
Splenocytes harvested in a 50 mL falcon tube by mashing mouse spleen in a 40 μm cell strainer were further treated with 1 mL ACK lysis buffer for 5 min at room temperature. After washing with 9 mL of RPMI complete media, cells were re-suspended in 3 mL of 1×PBS in a 15 mL tube. 3 mL of Histopaque was added carefully to the bottom of the tube without disturbing overlaying splenocyte suspension. After centrifuging at 800×g for 20 min at room temperature, the opaque layer of splenocytes was collected carefully without disturbing/mixing the layers. Splenocytes were washed twice with cold 1×PBS followed by total cell counting using Trypan Blue exclusion method and used further for cell based assays.
Splenocytes were cultured in RPMI complete media (RPMI+10% fetal bovine serum+1 mM sodium pyruvate+10,000 units/mL penicillin and […] streptomycin) and maintained in a CO2 incubator with 5% CO2 at 37° C.
CFSE is a dye that passively diffuses into cells and binds to intracellular proteins. 1×10^6 cells/mL of harvested splenocytes were treated with 5 μM of CFSE in pre-warmed 1×PBS/0.1% BSA solution for 10 min at 37° C. Excess CFSE was quenched using 5 volumes of ice-cold culture media to the cells and incubated on ice for 5 min. CFSE labelled splenocytes were further given three washes with ice cold complete RPMI media. CFSE labelled 1×10^5 splenocytes added to wells containing either MDA-MB231 cells (1×10^5 cells cultured in high glucose DMEM medium) or recombinant human PDL-1 (100 ng/mL) and test compounds. Splenocytes were stimulated with anti-mouse CD3 and anti-mouse CD28 antibody (1 μg/mL each) and the culture was further incubated for 72 h at 37° C. with 5% CO2. Cells were harvested and washed thrice with ice cold FACS buffer and % proliferation was analysed by flow cytometry with 488 nm excitation and 521 nm emission filters.
Percent splenocyte proliferation was analysed using cell quest FACS program and percent rescue of splenocyte proliferation by compound was estimated after deduction of % background proliferation value and normalising to % stimulated splenocyte proliferation (positive control) as 100%.
Stimulated splenocytes: Splenocytes+anti-CD3/CD28 stimulation
Background proliferation: Splenocytes+anti-CD3/CD28+PD-L1
Compound proliferation: Splenocytes+anti-CD3/CD28+PD-L1+Compound […]

activation at 0.1 µM | Compound
50% | CCC(C)[C@H](NC(=O)N[C@H](C(=O)O)C(C)O)c1nc([C@@H](N)CO)no1 (stereo partly drawn) [Compound 16]
75% | CCCCCCNC(=O)C[C@H](NC(=O)N[C@H](C(=O)O)C(C)O)c1nc([C@@H](N)CO)no1 (stereo partly drawn) [Compound 77]
60% | CC(O)[C@H](NC(=O)N[C@@H](CCC(N)=O)c1nc([C@@H](N)CCCNC(=N)N)no1)C(=O)O (stereo partly drawn) [Compound 33]
55% | CCCCCOC(=O)[C@@H](NC(=O)N[C@@H](CC(N)=O)c1nc([C@@H](N)CO)no1)C(C)O (stereo partly drawn) [Compound 80]
35% | CC(O)[C@H](N)c1noc([C@H](Cc2ccccc2)NC(=O)N2CCC[C@H]2C(=O)O)n1 (stereo partly drawn) [Compound 62]
97% | CCN(Cc1ccccc1)C(=O)N[C@@H](CC(N)=O)c1nc([C@@H](N)CO)no1 (stereo in doubt) [Compound 94]
28% | CC(O)[C@H](NC(=O)N[C@@H](CC(N)=O)c1nc([C@H](C)N)no1)C(=O)O (stereo partly drawn) [Compound 15]
18% | CC(O)[C@H](NC(=O)[C@H](CCC(N)=O)NC(=O)N[C@@H](CC(N)=O)c1nc([C@@H](N)CO)no1)C(=O)O (stereo partly drawn) [Compound 81]
49% | N[C@@H](CC(=O)O)c1noc([C@@H]2CCCN2C(=O)N[C@@H](CC(=O)O)C(=O)O)n1 [Compound 23]

Continued, compound first:

Compound | activation at 0.1 µM
CC(C)C[C@H](N)c1noc([C@H](CC(N)=O)NC(=O)CNC(=O)N[C@H](C(=O)O)C(C)O)n1 (stereo partly drawn) [Compound 82] | 12%
CC(=O)NCCCC[C@H](NC(=O)N[C@H](C(=O)O)C(C)O)c1nc([C@@H](N)CO)no1 (stereo partly drawn) [Compound 27] | 37%
NCCCC[C@H](N)c1noc([C@H](CCC(N)=O)NS(=O)(=O)N[C@@H](CO)C(=O)O)n1 [Compound 103] | 79%
C[C@@H](O)[C@H](NC(=O)N[C@@H](CC(N)=O)c1nc([C@@H](N)Cc2c[nH]c3ccccc23)no1)C(=O)O (stereo in doubt) [Compound 41] | 78%
NCCCC[C@H](N)c1noc([C@H](CCC(=O)O)NC(=O)N[C@@H](CO)C(=O)O)n1 [Compound 37] | 60%
CC(O)[C@H](NC(=O)N[C@@H](CC(N)=O)c1nc([C@@H](N)CO)no1)C(=O)Nc1ccc2c(c1)OCCO2 (stereo partly drawn) [Compound 51] | 20%

Reference: patent US10781189B2, “1,2,4-Oxadiazole and thiadiazole compounds as immunomodulators” (Aurigene Discovery Technologies Limited, priority 2015, dated 2020)
